Assay [1] can be described thus: 15N T1rho ssNMR relaxation of lipid II-bound teixobactin. The note with it: 60 kHz MAS, in membranes. An excerpt:
(§1) T1rho trajectories were fit to single exponentials.

Assay [2] can be described thus: Mobility-edited H(H)C ssNMR: membrane topology of lipid II-bound teixobactin. The note with it: 300 K, T2 filter 2.5 ms.
Excerpt: as §1
Extended Data Fig. 8 The membrane topology of the complex. a) and b) show mobility-edited (‘T2-filtered’) ^1H(^1H)^13C ssNMR experiments[37] of ^13C,^15N-teixobactin bound to Lipid II. […] For each residue, peak areas were integrated using Topspin 4.06. Signals that were used for the integration are annotated. e) Membrane topology visualized with the ssNMR structure. Hydrophilic (in blue) and hydrophobic (brown) residues are sharply separated above and below the β-sheet, respectively. Note that the N-terminal Phe1 at the rim of the β-sheet has higher water accessibility, potentially because of fraying and mobility effects. f) Normalized contacts to water and lipid-tails, back-calculated over the MD simulation based on our ssNMR structure. g) Membrane topology using a different structure of the calculated ssNMR ensemble. As shown in Extended Data Fig. 9a, the despi-cycle is plastic and can point up towards the water phase, bringing End10 well-above the membrane-plane. Source data

Assay [3] in a line: Confocal microscopy of GUVs doped with Atto 550-labelled lipid II. The following applies: DOPC GUVs with 0.1 mol% Atto 550-lipid II, 1 μM teixobactin, 3 h; biological triplicates. As to the method: We used a self-assembled GUV cell, aligned with two titanium electrodes in a closed Teflon chamber (volume = 500 μl). Of 0.5 mM DOPC doped with Atto 550-labelled lipid II (0.1 mol%), 1 μl was brushed on the titanium electrodes. The GUV cell was dried under vacuum. Next, the chamber was filled with 350 μl 0.1 M sucrose solution, the electrodes dipped in and connected to a power supply of a sine wave (2.5 V; 10 Hz; 90 min). Each microscopy slide (m-slide 8 well, Ibidi) was incubated with 350 μl BSA solution (1 mg ml^−1) for 1 h. To detach the GUVs, the power supply was changed to square wave (2 V; 2 Hz; 15 min). The slides were washed once with water and 0.1 M glucose solution. The slides were immersed in 300 μl of 0.1 M glucose solution to which 50 μl of GUVs was added. […] GUVs were imaged using Zeiss LSM 880 with ×63/1.2 NA glycerol and ×100/1.2 NA oil objective lenses. The Atto 550 label appeared red upon excitation by the 560-nm laser. The brightfield was used for detection and location of the GUVs and to observe their shape. Zeiss Zen Black software was used for the analysis of the images.

Assay [4] has as its system Staphylococcus simulans. Put plainly: Sytox green membrane damage assay, S. simulans. It counts as cell-based. On the procedure:
(§2) The bacterial cultures were grown overnight at 30 °C in TSB media for S. simulans and at 37 °C in LB medium for Bacillus subtilis. Secondary cultures were grown for 3 h until OD600 = 0.5 was reached. The bacterial cells were then centrifuged at 1,500g for 10 min at 4 °C and washed twice with 10 ml of buffer (10 mM Tris, 100 mM NaCl, 1 mM MgCl2 and 0.5% glucose, pH 7.2). The bacterial cells were resuspended to an OD600 = 10 in the buffer and used for the experiment. […] For the assay, 1 μl of the bacterial suspension was added to 1 ml of buffer. For the ion leakage assays, 1 μl of the DiSC-2 probe from a 1 mM stock was added to the cuvette and the fluorescence was measured between a wavelength of 650 nm and 670 nm (bandwidth of […]) for 2 min before the addition of the antibiotic and 6 min after. For the Sytox green leakage assays, 1 μl of the Sytox green probe from a 0.25 mM stock was added to the cuvette and the fluorescence was measured between a wavelength of 500 nm and 520 nm (bandwidth of […]) for 2 min before the addition of the antibiotic and 6 min after. All experiments were performed in triplicates.

The subject of assay [5] is B. subtilis. Description: MIC, B. subtilis (given with permeabilization assay concentrations). It counts as cell-based, Bacillus subtilis. As to the method: as §2
Assay [6] relates to Gram-positive pathogens. The following applies: cited from earlier work. On the procedure: Antibiotics that use novel mechanisms are needed to combat antimicrobial resistance[1]–[3]. […] Here we unravel the mechanism of teixobactin at the atomic level using a combination of solid-state NMR, microscopy, in vivo assays and molecular dynamics simulations. […] (Fig. 4h and Extended Data Fig. 10b,c).

“Also recorded” adds a separate entry of the source.

As to teixobactin, in assay [1], the “overall dynamics in the complex (in words)” value is given as “The overall dynamics of the molecule is very slow”. In addition, in assay [2], the “membrane topology (in words)” value was “localizes at the water–membrane interface with the hydrophobic residues Ile2, Ile5 and Ile6 partitioned in the bilayer”. For the same substance, the “GUV oligomerization and membrane perturbation (in words)” value in assay [3] is “formation of micron-sized teixobactin–lipid II oligomers; also recorded: pronounced concave membrane perturbations at the oligomerization sites”. Besides, the “membrane damage, Sytox green (in words)” value in assay [4] (Sytox green, Gram-positive bacteria, 20 °C, pH 7.2, 2 min before and 6 min after antibiotic, triplicates) was “Although less pronounced than for nisin, teixobactin also showed clear effects with Sytox green”. Also, the “time of membrane defects in intact bacteria” value in assay [4] (intact bacteria, DiSC / Sytox green assays) is reported as at most 10 min. Besides, the “concentration stated as 10× MIC” value in assay [5] worked out at 0.2 µM. The “antibacterial activity (in words)” value in assay [6] (MRSA, S. pneumoniae, vancomycin-resistant Enterococci) is “broad activity against multidrug-resistant Gram-positive pathogens”. For the same substance, in assay [6], the “bacterial killing compared with vancomycin (in words)” value was “more effective in killing bacteria than vancomycin” and the “resistance (in words)” value is “lack of resistance”.

These data come from publication PMC9365693 (Nature, 2022).
